Series [1] addresses T1, Oxysterols receptor LXR-alpha (Homo sapiens) (UniProt Q13133).
T1 sequence (whole entry): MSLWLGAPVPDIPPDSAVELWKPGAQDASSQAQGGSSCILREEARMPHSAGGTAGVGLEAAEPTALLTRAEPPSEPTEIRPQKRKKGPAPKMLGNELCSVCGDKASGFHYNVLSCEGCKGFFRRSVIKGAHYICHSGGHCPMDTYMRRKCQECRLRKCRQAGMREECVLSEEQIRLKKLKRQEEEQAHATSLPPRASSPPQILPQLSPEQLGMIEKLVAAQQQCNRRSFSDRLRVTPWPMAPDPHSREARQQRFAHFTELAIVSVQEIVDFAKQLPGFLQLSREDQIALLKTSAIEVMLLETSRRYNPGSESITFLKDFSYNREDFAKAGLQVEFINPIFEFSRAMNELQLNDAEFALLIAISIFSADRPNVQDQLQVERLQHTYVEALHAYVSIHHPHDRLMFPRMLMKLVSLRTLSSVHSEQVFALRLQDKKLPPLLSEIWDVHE
In words: Agonist activity at LXRalpha by FRET assay relative to GW-3965A. It is filed as functional.

In series [2] the target is T2, Oxysterols receptor LXR-alpha (Homo sapiens, UniProt Q13133).
T2 sequence (Q13133 whole entry): T1 sequence (whole entry)
In words: Agonist activity at LXRalpha by FRET assay. The class given is functional.

The target of series [3] is T3, Oxysterols receptor LXR-beta (Homo sapiens, UniProt P55055).
T3 sequence (P55055 whole entry): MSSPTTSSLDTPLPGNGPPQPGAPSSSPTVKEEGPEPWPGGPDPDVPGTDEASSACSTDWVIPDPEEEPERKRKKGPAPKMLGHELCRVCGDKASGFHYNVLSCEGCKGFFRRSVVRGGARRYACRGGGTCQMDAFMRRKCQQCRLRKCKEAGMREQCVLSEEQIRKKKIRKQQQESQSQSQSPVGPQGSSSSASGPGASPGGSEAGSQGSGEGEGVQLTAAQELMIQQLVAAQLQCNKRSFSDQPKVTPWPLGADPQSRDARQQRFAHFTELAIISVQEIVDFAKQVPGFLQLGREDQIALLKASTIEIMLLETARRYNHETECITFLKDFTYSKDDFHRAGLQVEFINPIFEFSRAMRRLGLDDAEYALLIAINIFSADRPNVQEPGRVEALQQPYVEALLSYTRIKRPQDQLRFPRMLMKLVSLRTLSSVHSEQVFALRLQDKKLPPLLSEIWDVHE
In words: Agonist activity at LXRbeta by FRET assay. The class given is functional.

Series [4] concerns the target T4, Oxysterols receptor LXR-beta (Homo sapiens) (UniProt P55055).
T4 sequence (whole entry): T3 sequence (P55055 whole entry)
In words: Agonist activity at LXRbeta by FRET assay relative to GW-3965A. The class given is functional. On the set-up: concentration or dose not given beside the values.

The species named for series [5] is Mus musculus. In words: Increase in ABCA1 expression in mouse macrophages by cholesterol efflux assay.
A short description of series [6]: Plasma clearance in Sprague-Dawley rat at 1.1 mg/kg, iv or 2.1 mg/kg, po. The class given is ADME, organism-based.
Series [7] is described as follows: Volume of distribution at steady state in Sprague-Dawley rat at 1.1 mg/kg, iv or 2.1 mg/kg, po. The class given is ADME, organism-based. As to conditions: in vivo, read-out: Vdss.
The nature of series [8]: Half life in Sprague-Dawley rat at 1.1 mg/kg, iv. The class given is ADME, organism-based. More on the design: dose 1.1 mg/kg, route intravenous. As to conditions: in vivo.
Series [9] is described as follows: Cmax in Sprague-Dawley rat at 2.1 mg/kg, po. The class given is ADME, organism-based. On the set-up: dose 2.1 mg/kg, route oral. To be noted: in vivo.
Series [10] can be described thus: Half life in Sprague-Dawley rat at 2.1 mg/kg, po. It is filed as ADME, organism-based. On the set-up: dose 2.1 mg/kg, route oral. To be noted: in vivo.
Series [11] can be described thus: Oral bioavailability in Sprague-Dawley rat at 2.1 mg/kg. It is filed as ADME, organism-based. As to conditions: in vivo.

In the case of `Cc1cc(OCCCN(Cc2cccc(C(F)(F)F)c2Cl)CC(c2ccccc2)c2ccccc2)n[nH]1`, the figures for the Activity in series [1] and in series [4] were 25% and 30%, respectively. Further, the concentration giving a half-maximal response (EC50) (as a rule, the concentration at which the effect is half-maximal) in series [2] is 23 nM; in series [3], 15 nM.
On to `Cc1cc(OCCCN(Cc2cccc(C(F)(F)F)c2Cl)CC(c2ccccc2)c2ccccc2)n2ncnc2n1`, for which the Activity in series [1] amounted to 25%; in [4], 33%. Further, the EC50 in series [2] amounted to 790 nM; in series [3], 560 nM.
With `FC(F)(F)c1cccc(CN(CCCOc2ccc3[nH]ccc3c2)CC(c2ccccc2)c2ccccc2)c1Cl`, the Activity in [1] is 36%; in series [4] it was 78%. For the same compound, the EC50 in [2] worked out at 226 nM; in [3], 23 nM.
On to `O=C(O)Cc1cccc(OCCCN(Cc2cccc(C(F)(F)F)c2Cl)CC(c2ccccc2)c2ccccc2)c1`, for which the concentration for a half-maximal effect (EC50) in series [3] came out at 25 nM; in [5], 50 nM.
As for `FC(F)(F)c1cccc(CN(CCCOc2cccc3[nH]ccc23)CC(c2ccccc2)c2ccccc2)c1Cl`, the Activity came to 90% in series [1] and 104% in [4]. In addition, the EC50 came to 60 nM in series [2], 15 nM in [3] and 5 nM in series [5].
`O=C(O)Cn1ccc2c(OCCCN(Cc3cccc(C(F)(F)F)c3Cl)CC(c3ccccc3)c3ccccc3)cccc21`: the Activity amounted to 132% in [1] and 105% in [4]. The EC50 in [2] was found to be 14 nM; in [3] it was 4 nM; in [5] it was 15 nM. In [6], this compound returned a clearance of 14.6 mL/min/kg. For the same compound, in series [7], the Vd stood at 1.15 L/kg. Also, the half-life (commonly the time in which the quantity being followed falls by half) in [8] was 81 min; in [10] it was 174 min. In addition, the concentration in series [9] peaked (Cmax) at 1810 ng/mL. The bioavailability (commonly the share of a dose that reaches the circulation, judged against a reference dose that is usually intravenous) in [11] came to 45.4%.
In the case of `Cn1ccc2c(OCCCN(Cc3cccc(C(F)(F)F)c3Cl)CC(c3ccccc3)c3ccccc3)cccc21`, the Activity was 57% in series [1] and 86% in [4]. Further, the concentration for a half-maximal effect (EC50) in [2] came to 39 nM; in [3], 12 nM.
As for `Cc1cc(C)c2c(OCCCN(Cc3cccc(C(F)(F)F)c3Cl)CC(c3ccccc3)c3ccccc3)n[nH]c2n1`, the concentration for a half-maximal effect (EC50) in series [2] was greater than 3000 nM; in series [3], 510 nM. In series [4], this compound had an Activity of 25%.
For `COC(=O)c1cc(OCCCN(Cc2cccc(C(F)(F)F)c2Cl)CC(c2ccccc2)c2ccccc2)no1`, the Activity stood at 65% in [1] and 68% in [4]. The results for the EC50 in series [2] and in series [3] were 63 nM and 26 nM, respectively.
As to `CS(=O)(=O)n1ccc2c(OCCCN(Cc3cccc(C(F)(F)F)c3Cl)CC(c3ccccc3)c3ccccc3)cccc21`, the Activity turned out to be 50% in series [1] and 72% in [4]. The EC50 came out at 20 nM in series [2] and 7 nM in [3].
Regarding `COC(=O)Cc1c[nH]c2ccc(OCCCN(Cc3cccc(C(F)(F)F)c3Cl)CC(c3ccccc3)c3ccccc3)cc12`, the Activity came to 19% in series [1] and 36% in series [4]. The EC50 was 630 nM in series [2] and 288 nM in [3].
As for `FC(F)(F)c1cccc(CN(CCCOc2n[nH]c3ccccc23)CC(c2ccccc2)c2ccccc2)c1Cl`, the values for the Activity in [1] and in series [4] were 17% and 44%, respectively. The figures for the half-maximal effective concentration (EC50) in series [2] and in series [3] were 110 nM and 60 nM, respectively.

The values above are taken from ChEMBL document CHEMBL1152711, “Synthesis and SAR of potent LXR agonists containing an indole pharmacophore” (Bioorg Med Chem Lett, 2009).
